Source: PubChem BioAssay AID1963961 (Molecular Pharmacology Branch, DTP, NCI, 2024)

Test system: K98450-129-R-PDC multicell spheroids, viability
Assay: Anticancer human tumor K98450-129-R-PDC patient-derived colon adenocarcinoma cell line growth inhibition [PI3K]
Details: for IC50: curve of first compound; for viability, T/C: stronger effect = lower value
Description: Combinatorial screen of targeted agents with the PI3K inhibitors inavolisib, alpelisib, duvelisib, and copanlisib in multi-cell type tumor spheroids
A high-throughput screen of multi-cell type tumor spheroids was designed to identify active combinations of targeted small molecules and PI3K pathway inhibitors. Complex spheroids include a stromal component modeled by human endothelial cells (HUVEC) and fibroblasts modeled by human mesenchymal stem cells (MSCs). The concentration ranges selected for each drug and investigational agent were based upon clinically achievable concentrations if the clinical Cmax of the agent was known.
Compounds. The drugs and investigational agents: inavolisib (NSC800729), alpelisib (NSC765974), duvelisib (NSC772469), copanlisib (NSC816437), ipatasertib (NSC767898), afuresertib (NSC778305), talazoparib (NSC767125), sapanisertib (NSC764658), selumetinib (NSC741078), tovorafenib (DAY101, NSC766906), vemurafenib (NSC761431), ravoxertinib (NSC781343), sotorasib (NSC818433), MRTX1133 (NSC 836407), abemaciclib (NSC 768073), palbociclib (NSC758247), venetoclax (NSC 766270), SY5609 (NSC837396), enzalutamide (NSC755605), and darolutamide (NSC825331), were obtained from the National Cancer Institute (NCI) Developmental Therapeutics Program Chemical Repository. The FDA-approved anticancer drug set is available from the NCI Developmental Therapeutics Program. […] The stock solutions were prepared in dimethyl sulfoxide (DMSO, Sigma-Aldrich, St. Louis, MO, cat. D2650) at 800-fold the tested concentration and stored at -70 degrees C prior to their use. All drugs and investigational agents were tested over a range starting from a high concentration at or near the clinical Cmax and decreasing in half-log increments. If the clinical Cmax for an agent had not been determined, the highest concentration tested was 10 microM.
Cell Culture. All cells were maintained in an incubator at 37 degrees C and 5% CO2 with 95% humidity. The PDC lines were cultured according to standard operating procedures established by the NCI PDMR (https://pdmr.cancer.gov/sops/default.htm). All PDCs were thawed and cultured in Matrigel-coated flasks prepared with a working solution of 1X Ham's F-12 nutrient mix, without supplementation (Invitrogen, Waltham, MA, cat. 11765054), 100 U/mL penicillin-streptomycin (Invitrogen, cat. 15140122), and 2.5% Matrigel (Corning Inc., Corning, NY, cat. 354248) for the first three passages. The 354836-022-R-J1-PDC, 475296-252-R-J1-PDC, and 997726-040-R-J2-PDC lines were cultured in 6A media, which includes advanced DMEM/F-12 (Thermo Fisher Scientific, cat. 12634028), 10 mM HEPES (Thermo Fisher Scientific, cat. 15630080), 1X GlutaMAX supplement (Thermo Fisher Scientific, cat. 35050061), 0.1 mg/mL primocin (InvivoGen, San Diego, CA, cat. ant-pm-2), 10% defined fetal bovine serum, heat inactivated (HyClone Laboratories Inc., Logan, UT, cat. SH30070.03HI), 50% L-WRN conditioned media (ATCC, cat. CRL-3276), 1.25 mM N-Acetyl-L-cysteine (Sigma-Aldrich, cat. A9165), 10 mM nicotinamide (Sigma-Aldrich, cat. N0636), 1X B-27 supplement (Thermo Fisher Scientific, cat. 17504044), 1X N-2 supplement (Thermo Fisher Scientific, cat. 17502048), and 10 microM Y-27632 dihydrochloride (Tocris Bioscience, Bristol, United Kingdom, cat. 1254). The 624824-186-R-J2-PDC line was cultured in 6C/Colon 1B media, which includes all 6A media components plus 50 ng/mL human EGF recombinant protein (Thermo Fisher Scientific, cat. PHG0311). […]
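Further: spheroids exposed to agents for seven days before read-out.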

Cn1cnc2c(F)c(Nc3ccc(Br)cc3Cl)c(C(=O)NOCCO)cc21 + CC(Nc1ccc2c(c1)OCCn1cc(N3C(=O)OCC3C(F)F)nc1-2)C(N)=O gave an IC50 (second compound 0.00316 µM) of 1.33 µM, an IC50 (second compound 0.01 µM) of 1.15 µM and an IC50 (second compound 0.0316 µM) of 1.19 µM. For the same compound, the IC50 (second compound 0.1 µM) was 1.24 µM, the IC50 (second compound 0.316 µM) was 0.857 µM and the IC50 (second compound 1 µM) was 0.605 µM. It also gave a viability, T/C (second compound 0.00316 µM, first compound 0.00949 µM) of 105%, a viability, T/C (second compound 0.00316 µM, first compound 0.03 µM) of 86.9% and a viability, T/C (second compound 0.00316 µM, first compound 0.0949 µM) of 95.5%. The viability, T/C (second compound 0.00316 µM, first compound 0.3 µM) was 76.1%, the viability, T/C (second compound 0.00316 µM, first compound 0.949 µM) was 62.1% and the viability, T/C (second compound 0.00316 µM, first compound 3 µM) was 25.7%. For the same compound, the viability, T/C (second compound 0.01 µM, first compound 0.00949 µM) was 102%, the viability, T/C (second compound 0.01 µM, first compound 0.03 µM) was 88.7% and the viability, T/C (second compound 0.01 µM, first compound 0.0949 µM) was 91%. For the same compound, the viability, T/C (second compound 0.01 µM, first compound 0.3 µM) was 75.4%, the viability, T/C (second compound 0.01 µM, first compound 0.949 µM) was 56.3% and the viability, T/C (second compound 0.01 µM, first compound 3 µM) was 21.9%. It also gave a viability, T/C (second compound 0.0316 µM, first compound 0.00949 µM) of 99.3%, a viability, T/C (second compound 0.0316 µM, first compound 0.03 µM) of 93.4% and a viability, T/C (second compound 0.0316 µM, first compound 0.0949 µM) of 83%. It also gave a viability, T/C (second compound 0.0316 µM, first compound 0.3 µM) of 75.3%, a viability, T/C (second compound 0.0316 µM, first compound 0.949 µM) of 62.1% and a viability, T/C (second compound 0.0316 µM, first compound 3 µM) of 17.7%. For the same compound, the viability, T/C (second compound 0.1 µM, first compound 0.00949 µM) was 89.5%, the viability, T/C (second compound 0.1 µM, first compound 0.03 µM) was 81.8% and the viability, T/C (second compound 0.1 µM, first compound 0.0949 µM) was 85.6%. It also gave a viability, T/C (second compound 0.1 µM, first compound 0.3 µM) of 76.5%, a viability, T/C (second compound 0.1 µM, first compound 0.949 µM) of 60.5% and a viability, T/C (second compound 0.1 µM, first compound 3 µM) of 16.7%. It also gave a viability, T/C (second compound 0.316 µM, first compound 0.00949 µM) of 83.7%, a viability, T/C (second compound 0.316 µM, first compound 0.03 µM) of 83.5% and a viability, T/C (second compound 0.316 µM, first compound 0.0949 µM) of 82.5%. It also gave a viability, T/C (second compound 0.316 µM, first compound 0.3 µM) of 72.2%, a viability, T/C (second compound 0.316 µM, first compound 0.949 µM) of 48% and a viability, T/C (second compound 0.316 µM, first compound 3 µM) of 11.1%. For the same compound, the viability, T/C (second compound 1 µM, first compound 0.00949 µM) was 76.6%, the viability, T/C (second compound 1 µM, first compound 0.03 µM) was 77.5% and the viability, T/C (second compound 1 µM, first compound 0.0949 µM) was 78.2%. The viability, T/C (second compound 1 µM, first compound 0.3 µM) was 66.8%, the viability, T/C (second compound 1 µM, first compound 0.949 µM) was 38.9% and the viability, T/C (second compound 1 µM, first compound 3 µM) was 9.63%.
